In US20250313547A1, “CEREBLON LIGANDS AND BIFUNCTIONAL COMPOUNDS COMPRISING THE SAME” (Arvinas Operations, Inc., priority 2017, published 2025):

Tests used:
[1] = biological target: Estrogen receptor-alpha (ERα) (Homo sapiens (Human), UniProt P03372); test: ERα degradation assay in T47D cells; format: cell-based; conditions: 5 day incubation, read-out: ER degradation DC50
c-myc = test: BRD4 human c-Myc ELISA assay in 22RV-1 cells; format: cell-based; conditions: 18 hours
Protocol: 6. BRD4 Human c-Myc ELISA Assay Protocol
22RV-1 cells were seeded at 30,000 cells/well at a volume of 75 µL/well in RPMI with 10% FBS media in 96-well plates and grown overnight at 37° C. Cells were dosed with compounds at 4× concentration diluted in 0.4% DMSO; compounds were serially diluted 1:3 for 8-point dose curve. Twenty-five (25) ul of the compounds was added to cells for a final concentration starting at 300 nM-0.3 nM or 1 uM-1 nM in 0.1% DMSO and incubated for 18 hours. Media was aspirated, cells were washed 1×with PBS and aspirated. Cells were lysed in 50 ul RIPA buffer (50 mM Tris pH8, 150 mM NaCl, 1% Tx-100, 0.1% SDS, 0.5% sodium deoxycholate) supplemented with protease and phosphatase inhibitors. Plates were incubated on ice for 15 minutes then centrifuged at 4° C. for 10 minutes at 4000 rpm. Fifty (50) ul of cleared lysate from a 96-well assay plate was added into 96-well c-myc ELISA plate (Novex, Life Technologies Catalog #KH02041). c-myc standard was reconstituted with standard diluent buffer; standard curve range of 333 pg/ml-0 pg/ml was prepared, diluted 1:2 for 8-point dose curve. The rest of the assay was performed following the protocol from the c-myc ELISA kit. Data was analyzed and plotted using GraphPad Prism software.

tau protein = test: Tau protein in vitro degradation assay in SK-N-SH cells (Western blot); format: cell-based, human; conditions: % degraded, 72-hour incubation
Protocol: 10. Tau Protein In Vitro Degradation Assay
To determine effect of PROTACs on tau protein degradation SK-N-SH cells were seeded in a 24-well tissue culture-treated plate for at least 18-hours prior to compound addition. Tau PROTACs were evaluated for tau degradation by lysing the cells in RIPA buffer with protease inhibitors following a 72-hour incubation with tau PROTACs. Cell lysates were run on standard SDS-PAGE gels, and tau levels were detected by Western blotting using Tau-13 antibody from Abcam (Cambridge, UK) that binds to all forms of human tau.

Sequence of Estrogen receptor-alpha (ERα) (P03372 whole entry): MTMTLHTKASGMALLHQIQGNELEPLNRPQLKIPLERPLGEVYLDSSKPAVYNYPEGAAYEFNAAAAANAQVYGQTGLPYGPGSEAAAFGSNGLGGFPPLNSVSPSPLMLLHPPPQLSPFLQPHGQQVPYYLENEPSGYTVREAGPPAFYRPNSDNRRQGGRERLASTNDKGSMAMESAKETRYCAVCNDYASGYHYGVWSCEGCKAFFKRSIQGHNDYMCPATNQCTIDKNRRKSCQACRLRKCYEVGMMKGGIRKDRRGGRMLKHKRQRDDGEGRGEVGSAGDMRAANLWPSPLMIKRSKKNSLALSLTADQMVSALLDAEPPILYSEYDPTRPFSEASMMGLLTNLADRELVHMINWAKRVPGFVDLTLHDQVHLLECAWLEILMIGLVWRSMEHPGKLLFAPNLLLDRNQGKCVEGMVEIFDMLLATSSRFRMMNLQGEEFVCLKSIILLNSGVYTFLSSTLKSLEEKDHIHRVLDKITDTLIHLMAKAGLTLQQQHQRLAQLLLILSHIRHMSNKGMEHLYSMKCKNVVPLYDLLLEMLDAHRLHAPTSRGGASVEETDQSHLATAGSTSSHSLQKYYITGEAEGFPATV

Row | DC50 [1] | SMILES | other results
1 | ≥ 100 nM | O=C1CCC(N2CC(Oc3cccc(C4CCN(CCCOc5ccc([C@H]6c7ccc(O)cc7CC[C@H]6c6ccccc6)cc5)CC4)c3)=CC2=O)C(=O)N1 (mixture of isomers) [PROTAC-105, rac-3-(4-(3-(1-(3-(4-((1R,2S)-6-hydroxy-2-phenyl-1,2,3,4-tetrahydronaphthalen-1-yl)phenoxy)propyl)piperidin-4-yl)phenoxy)-2-oxo-2,5-dihydro-1H-pyrrol-1-yl)piperidine-2,6-dione] | –
2 | ≥ 100 nM | O=C1CCC(N2CC(Oc3cccc(C4CCN(CCCCOc5ccc([C@H]6c7ccc(O)cc7CC[C@H]6c6ccccc6)cc5)CC4)c3)=CC2=O)C(=O)N1 (mixture of isomers) [PROTAC-109, rac-3-(4-(3-(1-(4-(4-((1R,2S)-6-hydroxy-2-phenyl-1,2,3,4-tetrahydronaphthalen-1-yl)phenoxy)butyl)piperidin-4-yl)phenoxy)-2-oxo-2,5-dihydro-1H-pyrrol-1-yl)piperidine-2,6-dione] | –
3 | – | Cc1sc2c(c1C)C(c1ccc(Cl)cc1)=NC(CC(=O)NCCCOCCCOc1ccc3ncc(-n4ccc(=O)[nH]c4=O)cc3c1)c1nnc(C)n1-2 (centres unmarked) [PROTAC-1, 2-(4-(4-chlorophenyl)-2,3,9-trimethyl-6H-thieno[3,2-f][1,2,4]triazolo[4,3-a][1,4]diazepin-6-yl)-N-(3-(3-((3-(2,4-dioxo-3,4-dihydropyrimidin-1(2H)-yl)quinolin-6-yl)oxy)propoxy)propyl)acetamide] | IMax Myc (c-myc): 40C (C <= 50)
4 | 1 to 10 nM | O=C1CCC(N2CC(Oc3cccc(C4CCN(CCCOc5ccc([C@@H]6c7ccc(O)cc7CC[C@@H]6c6ccccc6)cc5)CC4)c3)=CC2=O)C(=O)N1 (stereo partly drawn) [PROTAC-106, 3-(4-(3-(1-(3-(4-((1R,2S)-6-hydroxy-2-phenyl-1,2,3,4-tetrahydronaphthalen-1-yl)phenoxy)propyl)piperidin-4-yl)phenoxy)-2-oxo-2,5-dihydro-1H-pyrrol-1-yl)piperidine-2,6-dione] | –
5 | – | Cn1c2ccncc2c2ccc(-c3ccc(OCCOCCOCCOCCOCCN4CCC5(CC4)CC(=O)N(C4CCC(=O)NC4=O)C5=O)nc3)cc21 (centres unmarked) [PROTAC-112, 2-(2,6-dioxopiperidin-3-yl)-8-(14-((5-(5-methyl-5H-pyrido[4,3-b]indol-7-yl)pyridin-2-yl)oxy)-3,6,9,12-tetraoxatetradecyl)-2,8-diazaspiro[4.5]decane-1,3-dione] | Tau degradation % DMax (tau protein): C (C <= 50)
